# Assay results taken from ChEMBL document CHEMBL2069236, “Synthesis and biological evaluation of novel N-acyl substituted quinolin-2(1H)-one derivatives as potential antimicrobial agents” (2012).
# What was measured:
# Type in all cases: functional
# [1] = system: Staphylococcus aureus; assay: Antibacterial activity against Staphylococcus aureus ATCC 25923 by disc diffusion method
# [2] = system: Staphylococcus aureus; assay: Antibacterial activity against methicillin-resistant Staphylococcus aureus N 315 by disc diffusion method
# [3] = system: Bacillus subtilis; assay: Antibacterial activity against Bacillus subtilis ATCC 6633 by disc diffusion method
# [4] = system: Bacillus; assay: Antibacterial activity against Bacillus proteus by disc diffusion method
# [5] = system: Escherichia coli; assay: Antibacterial activity against Escherichia coli JM 109 by disc diffusion method
# [6] = system: Candida albicans; assay: Antifungal activity against Candida albicans ATCC 76615 by disc diffusion method
# [7] = system: Candida; assay: Antifungal activity against Candida mycoderma by disc diffusion method
# [8] = system: Staphylococcus aureus; assay: Ratio of streptomycin MIC to compound MIC for methicillin-resistant Staphylococcus aureus N 315
SMILES,MIC [1],MIC [2],MIC [3],MIC [4],MIC [5],MIC [6],MIC [7],Ratio [8]
CCCN(CCC)CC(=O)Nc1cccc2c1CCC(=O)N2.Cl,8 µg/mL,64 µg/mL,64 µg/mL,256 µg/mL,64 µg/mL,256 µg/mL,16 µg/mL,
CCN(CC)CC(=O)Nc1cccc2c1CCC(=O)N2.Cl,128 µg/mL,64 µg/mL,32 µg/mL,256 µg/mL,8 µg/mL,256 µg/mL,32 µg/mL,
CC(C)(C)NCC(=O)Nc1cccc2c1CCC(=O)N2.Cl,32 µg/mL,128 µg/mL,256 µg/mL,256 µg/mL,32 µg/mL,16 µg/mL,32 µg/mL,
Cl.O=C1CCc2c(cccc2NC(=O)CN(Cc2ccccc2)Cc2ccccc2)N1,128 µg/mL,128 µg/mL,32 µg/mL,32 µg/mL,64 µg/mL,128 µg/mL,256 µg/mL,
Cl.O=C1CCc2c(cccc2NC(=O)CN(CCO)CCO)N1,128 µg/mL,64 µg/mL,128 µg/mL,128 µg/mL,128 µg/mL,4 µg/mL,128 µg/mL,
Cl.O=C1CCc2c(cccc2NC(=O)CNCc2ccccc2)N1,32 µg/mL,256 µg/mL,64 µg/mL,64 µg/mL,64 µg/mL,32 µg/mL,32 µg/mL,
Cl.O=C1CCc2c(cccc2NC(=O)CN2CCCCC2)N1,32 µg/mL,64 µg/mL,16 µg/mL,128 µg/mL,32 µg/mL,128 µg/mL,256 µg/mL,8
Cl.O=C1CCc2c(cccc2NC(=O)Cn2ccnc2)N1,16 µg/mL,64 µg/mL,32 µg/mL,64 µg/mL,64 µg/mL,16 µg/mL,16 µg/mL,8
Cl.O=C1CCc2c(cccc2NC(=O)CN2CCOCC2)N1,128 µg/mL,32 µg/mL,128 µg/mL,128 µg/mL,32 µg/mL,64 µg/mL,32 µg/mL,8
Cl.O=C1CCc2c(cccc2NC(=O)Cn2cnc3ccccc32)N1,16 µg/mL,32 µg/mL,128 µg/mL,256 µg/mL,32 µg/mL,256 µg/mL,32 µg/mL,8
Cl.O=C1CCc2c(cccc2NC(=O)CN2CCNCC2)N1,64 µg/mL,32 µg/mL,64 µg/mL,16 µg/mL,128 µg/mL,32 µg/mL,4 µg/mL,8
Cl.O=C1CCc2c(cccc2NC(=O)CN2CCCC2)N1,32 µg/mL,32 µg/mL,32 µg/mL,128 µg/mL,32 µg/mL,32 µg/mL,128 µg/mL,8
CC(C)(C)OC(=O)N1CCN(CC(=O)Nc2cccc3c2CCC(=O)N3)CC1.Cl,64 µg/mL,32 µg/mL,32 µg/mL,128 µg/mL,16 µg/mL,128 µg/mL,32 µg/mL,8
OC(Cn1cncn1)(Cn1cncn1)c1ccc(F)cc1F [FLUCONAZOLE],,,,,,4 µg/mL,8 µg/mL,
CN[C@@H]1[C@H](O[C@H]2[C@H](O[C@H]3[C@H](O)[C@@H](O)[C@H](N=C(N)N)[C@@H](O)[C@@H]3N=C(N)N)O[C@@H](C)[C@]2(O)C=O)O[C@@H](CO)[C@H](O)[C@H]1O [STREPTOMYCIN],32 µg/mL,512 µg/mL,32 µg/mL,64 µg/mL,16 µg/mL,,,
